Data published in the supplement of paper PMC11208160.
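Note: IS621 bridge recombinase in Escherichia coli cells against a fixed T5 target plasmid.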

Assay: recombinant UMI read abundance after kanamycin selection (control-corrected) (log10(CPM+1)); higher = more efficient recombination; extreme values may be limits of the assay; sequences stand for … in AGTGCAGAGAAAATCGGCCAGTTTTCTCTGCCTGCAGTCCGCATGCCGTGGGACCCCTTGGGTTCTAACCTGTTGCCTAGATTTATGCAGCGGACTGCCTTTCTCCCAAAGTGATAAACCGG…AGGTTGGTTTCACT; site = the 11-nt donor
How it was run: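 Sequenced counts of recombinant UMIs were turned into CPM, averaged across replicates and scaled with control-derived factors. The reported figure is log10(CPM+1). Those UMIs, each 12 nt long, tagged donor and donor-binding-loop pairs on a plasmid with a promoterless kanamycin gene, screened as a pool in Escherichia coli with IPTG (0.07 mM) plus kanamycin or without selection.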
For “GGCTCTGCATGGACCGGTTTTCCCGGTAATCCGTATTTGCT (site GGCTCTGCTAG)”, the “recombinant UMI read abundance (log10)” value was 1.66.
In the case of “GGCTTAGCATGGACCGGTTTTCCCGGTAATCCGTATTTGAG (site GGCTTAGCTCT)”, the “recombinant UMI read abundance (log10)” value is reported as 1.13.
For “GGCTTGACATGGACCGGTTTTCCCGGTAATCCGTATTTGCG (site GGCTTGACTCG)”, the “recombinant UMI read abundance (log10)” value was 0.919.
With “GGGAAGACATGGACCGGTTTTCCCGGTAATCCGTATTTGGA (site AGGAAGACTTG)” the “recombinant UMI read abundance (log10)” value was 0.00654.
For “GGGAAGACATGGACCGGTTTTCCCGGTAATCCGTATTTGGA (site GGGAAGACTTC)”, the “recombinant UMI read abundance (log10)” value was 1.22.
For “GGGAAGACATGGACCGGTTTTCCCGGTAATCCGTATTTGGT (site GGGAAGACTAC)”, the “recombinant UMI read abundance (log10)” value was 0.836.
For “GGGAAGCCATGGACCGGTTTTCCCGGTAATCCGTATTTGTT (site CGGAATCCTAA)”, the “recombinant UMI read abundance (log10)” value was 0.
For “GGGAAGCCATGGACCGGTTTTCCCGGTAATCCGTATTTGTT (site GGGAAGCCTAA)”, the “recombinant UMI read abundance (log10)” value was 0.0967.
In the case of “GGGAAGGCATGGACCGGTTTTCCCGGTAATCCGTATTTGCA (site AGGAAGACTTG)”, the “recombinant UMI read abundance (log10)” value is reported as 0.
For “GGGAAGGCATGGACCGGTTTTCCCGGTAATCCGTATTTGCA (site GGGAAGGCTTG)”, the “recombinant UMI read abundance (log10)” value was 2.86.
For “GGGAATCCATGGACCGGTTTTCCCGGTAATCCGTATTTGAT (site CGGAATCCTAA)”, the “recombinant UMI read abundance (log10)” value was 0.
With “GGGAATCCATGGACCGGTTTTCCCGGTAATCCGTATTTGAT (site GGGAATCCTAT)” the “recombinant UMI read abundance (log10)” value was 0.145.
In the case of “GGGAATCCATGGACCGGTTTTCCCGGTAATCCGTATTTGTT (site AGGAATCCTAA)”, the “recombinant UMI read abundance (log10)” value is reported as 0.
For “GGGAATCCATGGACCGGTTTTCCCGGTAATCCGTATTTGTT (site CGGAATCCTAA)”, the “recombinant UMI read abundance (log10)” value was 0.
In the case of “GGGAATCCATGGACCGGTTTTCCCGGTAATCCGTATTTGTT (site GGGAATCCTAA)”, the “recombinant UMI read abundance (log10)” value is reported as 0.192.
With “GGGAATCCATGGACCGGTTTTCCCGGTAATCCGTATTTGTT (site TGGAATCCTAA)” the “recombinant UMI read abundance (log10)” value was 0.0126.
With “GGGAATGCATGGACCGGTTTTCCCGGTAATCCGTATTTGGT (site GGGAATGCTAC)” the “recombinant UMI read abundance (log10)” value was 0.885.
With “GGGACACCATGGACCGGTTTTCCCGGTAATCCGTATTTGCA (site GGGACACCTTG)” the “recombinant UMI read abundance (log10)” value was 0.
With “GGGACACCATGGACCGGTTTTCCCGGTAATCCGTATTTGCA (site GGGCCACCTTG)” the “recombinant UMI read abundance (log10)” value was 0.
With “GGGACACCATGGACCGGTTTTCCCGGTAATCCGTATTTGCA (site GGGGCACCTTG)” the “recombinant UMI read abundance (log10)” value was 0.
In the case of “GGGACACCATGGACCGGTTTTCCCGGTAATCCGTATTTGCA (site GGGTCACCTTG)”, the “recombinant UMI read abundance (log10)” value is reported as 0.
In the case of “GGGACGTCATGGACCGGTTTTCCCGGTAATCCGTATTTGAC (site GGGACGTCTGT)”, the “recombinant UMI read abundance (log10)” value is reported as 3.2.
For “GGGACGTCATGGACCGGTTTTCCCGGTAATCCGTATTTGCA (site GGGACGTCTTG)”, the “recombinant UMI read abundance (log10)” value was 1.99.
For “GGGACGTCATGGACCGGTTTTCCCGGTAATCCGTATTTGGC (site GGGACGTCTGC)”, the “recombinant UMI read abundance (log10)” value was 2.43.
In the case of “GGGACTACATGGACCGGTTTTCCCGGTAATCCGTATTTGAC (site AGGACTACTGT)”, the “recombinant UMI read abundance (log10)” value is reported as 0.
For “GGGACTACATGGACCGGTTTTCCCGGTAATCCGTATTTGAC (site CGGACTACTGT)”, the “recombinant UMI read abundance (log10)” value was 0.
For “GGGACTACATGGACCGGTTTTCCCGGTAATCCGTATTTGAC (site GGGACTACTGT)”, the “recombinant UMI read abundance (log10)” value was 1.48.
With “GGGACTACATGGACCGGTTTTCCCGGTAATCCGTATTTGAC (site TGGACTACTGT)” the “recombinant UMI read abundance (log10)” value was 0.
In the case of “GGGACTCCATGGACCGGTTTTCCCGGTAATCCGTATTTGAG (site TACGTATCTTC)”, the “recombinant UMI read abundance (log10)” value is reported as 0.0126.
For “GGGACTCCATGGACCGGTTTTCCCGGTAATCCGTATTTGCG (site GGGACTCCTCG)”, the “recombinant UMI read abundance (log10)” value was 0.509.
With “GGGATAGCATGGACCGGTTTTCCCGGTAATCCGTATTTGTT (site GGGATAGCTAA)” the “recombinant UMI read abundance (log10)” value was 1.85.
For “GGGCAGGCATGGACCGGTTTTCCCGGTAATCCGTATTTGAG (site GGGCAGGCTCT)”, the “recombinant UMI read abundance (log10)” value was 1.48.
In the case of “GGGCAGGCATGGACCGGTTTTCCCGGTAATCCGTATTTGGG (site GGGCAGGCTCC)”, the “recombinant UMI read abundance (log10)” value is reported as 0.0905.
In the case of “GGGCATACATGGACCGGTTTTCCCGGTAATCCGTATTTGAC (site GGGCATACTGT)”, the “recombinant UMI read abundance (log10)” value is reported as 1.8.
With “GGGCCGTCATGGACCGGTTTTCCCGGTAATCCGTATTTGTA (site GGGCCGTCTTA)” the “recombinant UMI read abundance (log10)” value was 0.733.
For “GGGCGATCATGGACCGGTTTTCCCGGTAATCCGTATTTGGC (site GGGCGATCTGC)”, the “recombinant UMI read abundance (log10)” value was 1.98.
In the case of “GGGGAGGCATGGACCGGTTTTCCCGGTAATCCGTATTTGAG (site GGGGAGGCTCT)”, the “recombinant UMI read abundance (log10)” value is reported as 0.897.
In the case of “GGGGATTCATGGACCGGTTTTCCCGGTAATCCGTATTTGAT (site GGGGATTCTAT)”, the “recombinant UMI read abundance (log10)” value is reported as 1.72.
With “GGGGCACCATGGACCGGTTTTCCCGGTAATCCGTATTTGCA (site AGGGCACCTTG)” the “recombinant UMI read abundance (log10)” value was 0.
In the case of “GGGGCACCATGGACCGGTTTTCCCGGTAATCCGTATTTGCA (site CGGGCACCTTG)”, the “recombinant UMI read abundance (log10)” value is reported as 0.
In the case of “GGGGCACCATGGACCGGTTTTCCCGGTAATCCGTATTTGCA (site GAGGCACCTTG)”, the “recombinant UMI read abundance (log10)” value is reported as 0.00459.
With “GGGGCACCATGGACCGGTTTTCCCGGTAATCCGTATTTGCA (site GCGGCACCTTG)” the “recombinant UMI read abundance (log10)” value was 0.
For “GGGGCACCATGGACCGGTTTTCCCGGTAATCCGTATTTGCA (site GGAGCACCTTG)”, the “recombinant UMI read abundance (log10)” value was 0.
For “GGGGCACCATGGACCGGTTTTCCCGGTAATCCGTATTTGCA (site GGCGCACCTTG)”, the “recombinant UMI read abundance (log10)” value was 0.
For “GGGGCACCATGGACCGGTTTTCCCGGTAATCCGTATTTGCA (site GGGACACCTTG)”, the “recombinant UMI read abundance (log10)” value was 0.
In the case of “GGGGCACCATGGACCGGTTTTCCCGGTAATCCGTATTTGCA (site GGGCCACCTTG)”, the “recombinant UMI read abundance (log10)” value is reported as 0.00389.
With “GGGGCACCATGGACCGGTTTTCCCGGTAATCCGTATTTGCA (site GGGGAACCTTG)” the “recombinant UMI read abundance (log10)” value was 0.
In the case of “GGGGCACCATGGACCGGTTTTCCCGGTAATCCGTATTTGCA (site GGGGCAACTTG)”, the “recombinant UMI read abundance (log10)” value is reported as 0.
With “GGGGCACCATGGACCGGTTTTCCCGGTAATCCGTATTTGCA (site GGGGCACCTAG)” the “recombinant UMI read abundance (log10)” value was 0.0125.
In the case of “GGGGCACCATGGACCGGTTTTCCCGGTAATCCGTATTTGCA (site GGGGCACCTCG)”, the “recombinant UMI read abundance (log10)” value is reported as 0.0103.
With “GGGGCACCATGGACCGGTTTTCCCGGTAATCCGTATTTGCA (site GGGGCACCTGG)” the “recombinant UMI read abundance (log10)” value was 0.
With “GGGGCACCATGGACCGGTTTTCCCGGTAATCCGTATTTGCA (site GGGGCACCTTA)” the “recombinant UMI read abundance (log10)” value was 0.011.
For “GGGGCACCATGGACCGGTTTTCCCGGTAATCCGTATTTGCA (site GGGGCACCTTC)”, the “recombinant UMI read abundance (log10)” value was 0.0181.
For “GGGGCACCATGGACCGGTTTTCCCGGTAATCCGTATTTGCA (site GGGGCACCTTG)”, the “recombinant UMI read abundance (log10)” value was 0.
In the case of “GGGGCACCATGGACCGGTTTTCCCGGTAATCCGTATTTGCA (site GGGGCACCTTT)”, the “recombinant UMI read abundance (log10)” value is reported as 0.0161.
With “GGGGCACCATGGACCGGTTTTCCCGGTAATCCGTATTTGCA (site GGGGCAGCTTG)” the “recombinant UMI read abundance (log10)” value was 0.
With “GGGGCACCATGGACCGGTTTTCCCGGTAATCCGTATTTGCA (site GGGGCATCTTG)” the “recombinant UMI read abundance (log10)” value was 0.
